The results in this text go back to US7115604B2, “Method for treating erectile dysfunction” (Orion Corporation, priority 2000, dated 2006).

The experiment relates to NYHA III heart failure patients, who had not had erections for several years. In words: Clinical data: levosimendan infusion in heart failure patients with erectile dysfunction. Type of experiment: in vivo, man. How it is done: Clinical Data Two NYHA III heart failure patients, who had not had erections for several years were treated with levosimendan. Patient I was exposed to 0.05 μg/kg/min continuous infusion of levosimendan for 7 days.

[1] abbreviates: Patient I, 0.05 μg/kg/min continuous infusion for 7 days.

In the case of `CC1CC(=O)NN=C1c1ccc(NN=C(C#N)C#N)cc1` (single isomer, unassigned; (-)) [levosimendan, (−)-[[4-(1,4,5,6-tetrahydro-4-methyl-6-oxo-3-pyridazinyl)phenyl]hydrazono]propanedinitrile], under setting [1], the “erections during the study” value is on record as “erections in the mornings during the whole study” and the “time to reported erections after starting the infusion” value came to 1 days. Besides, the erections reported result (Patient II, 0.1 μg/kg/min continuous infusion for 2 days) was “reported erections”.
